Biological target: T1, TSHR (Homo sapiens, UniProt P16473)
T1 construct: expressed in transfected cells
Test: cAMP accumulation radioimmunoassay (RIA), inhibition of TSH-induced cAMP production in HEK-293 cells stably expressing TSHR
Assay type: cell-based
Set-up: antagonistic activity (% inhibition): concentration or dose not given beside the values
Conditions: inhibiting cAMP stimulation by TSH, radioimmunoassay
Experimental: HEK-293 cells stably expressing TSHR, FSHR, LHGCR or CRF1R were cultured for 48 h and stimulated for 1 h at 37° C. with stimulation buffer (DMEM supplemented with 10 mM HEPES, 0.5% BSA, 0.25 mM 3-isobutyl-1-methylxanthine) containing the ligands as indicated. After stimulation medium was aspirated and reactions were stopped by lysis of the cells with 0.1% trifluoroacetic acid, 0.005% Triton X-100 for 30 min at 4° C. Supernatants were collected and heated at 95° C. for 10 min, dried in a rotation vacuum concentrator (Alpha-RCV, Christ) and finally stored at −20° C. until use. After reconstitution and acetylation of the samples (Jäschke et al. 2006), the cAMP content was determined using cAMP-^125I-tyrosyl methyl ester (10,000 cpm, IBL) and polyclonal rabbit anti cAMP antibodies. The radioactivity of the precipitate was determined in a γ-counter.
For the Secondary Screening cAMP accumulation was measured by radioimmunoassay (RIA) in HEK-293-TSHR cells as described before.
For the secondary screening we used a very sensitive in vitro technique, the radioimmunoassay. This assay was established and performed in HEK-293 cell line stably expressing TSHR.
Therefore RIA was used to measure the cAMP accumulation upon stimulation with TSH (EC80 value) and confirmed the desired effect for S4 and S9 with a clear decrease of cAMP production.

T1 sequence (P16473 21-764): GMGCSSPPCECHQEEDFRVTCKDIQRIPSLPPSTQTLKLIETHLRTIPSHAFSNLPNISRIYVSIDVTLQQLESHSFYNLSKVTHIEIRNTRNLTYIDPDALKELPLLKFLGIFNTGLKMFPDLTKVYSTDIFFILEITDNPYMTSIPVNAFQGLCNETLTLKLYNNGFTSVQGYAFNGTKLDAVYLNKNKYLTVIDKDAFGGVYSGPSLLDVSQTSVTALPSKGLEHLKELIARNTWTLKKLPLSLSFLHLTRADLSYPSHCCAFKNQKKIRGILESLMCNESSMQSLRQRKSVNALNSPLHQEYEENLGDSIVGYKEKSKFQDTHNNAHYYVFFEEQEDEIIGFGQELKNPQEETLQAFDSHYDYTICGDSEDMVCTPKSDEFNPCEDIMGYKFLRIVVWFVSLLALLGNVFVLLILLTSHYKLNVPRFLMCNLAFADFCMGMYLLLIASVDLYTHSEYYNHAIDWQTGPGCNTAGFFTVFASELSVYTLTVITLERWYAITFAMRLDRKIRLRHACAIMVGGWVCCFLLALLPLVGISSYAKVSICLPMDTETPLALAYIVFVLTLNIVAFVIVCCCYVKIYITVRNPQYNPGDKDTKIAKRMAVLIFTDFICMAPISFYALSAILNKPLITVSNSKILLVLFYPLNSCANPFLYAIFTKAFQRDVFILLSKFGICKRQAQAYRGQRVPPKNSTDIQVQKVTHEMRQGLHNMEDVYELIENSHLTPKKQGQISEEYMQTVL

Point of comparison: `O=C1C2C3C=CC(C3)C2C(=O)N1c1ccc(N2CCOCC2)c([N+](=O)[O-])c1` (centres unmarked) [Compound S26], “antagonistic activity (% inhibition)” value 35%. Against it:
- COc1ccc(N2C(=O)[C@@H]3[C@H]4C[C@H]([C@@H]5Sc6[nH]c(=O)sc6[C@@H](c6ccccc6)[C@H]45)[C@@H]3C2=O)cc1 (racemic) [Compound S89, (4aR,5R,5aS,8aS,9S,9aR,10S)-7-(4-methoxyphenyl)-10-phenyl-3,4a,5,5a,8a,9,9a,10-octahydro-5,9-methanothiazolo[5′,4′:5,6]thiopyrano[2,3-t]isoindole-2,6,8(7H)-trione compound with (4aS,5S,5aR,8aR,9R,9aS,10R)-7-(4-methoxyphenyl)-10-phenyl-3,4a,5,5a,8a,9,9a,10-octahydro-5,9-methanothiazolo[5′,4′:5,6]thiopyrano[2,3-t]isoindole-2,6,8(7H)-trione (1:1)] — lower, 22%
- CN1CCN(c2ccc(N3C(=O)[C@@H]4[C@H]5C[C@H]([C@@H]6Sc7[nH]c(=O)sc7[C@@H](c7ccccc7)[C@H]56)[C@@H]4C3=O)cc2[N+](=O)[O-])CC1 [Compound S38, (4aS,5S,5aR,8aR,9R,9aS,10R)-7-(4-(4-methylpiperazin-1-yl)-3-nitrophenyl)-10-phenyl-3,4a,5,5a,8a,9,9a,10-octahydro-5,9-methanothiazolo[5′,4′:5,6]thiopyrano[2,3-f]isoindole-2,6,8(7H)-trione] — higher, 40%
- Cc1ccc(N2C(=O)[C@@H]3[C@H]4C[C@H]([C@@H]5Sc6[nH]c(=O)sc6[C@@H](c6ccccc6)[C@H]45)[C@@H]3C2=O)cc1 (racemic) [Compound S90, (4aR,5R,5aS,8aS,9S,9aR,10S)-10-phenyl-7-(p-tolyl)-3,4a,5,5a,8a,9,9a,10-octahydro-5,9-methanothiazolo[5′,4′:5,6]thiopyrano[2,3-f]isoindole-2,6,8(7H)-trione Compound with (4aS,5S,5aR,8aR,9R,9aS,10R)-10-phenyl-7-(p-tolyl)-3,4a,5,5a,8a,9,9a,10-octahydro-5,9-methanothiazolo[5′,4′:5,6]thiopyrano[2,3-f]isoindole-2,6,8(7H)-trione (1:1)] — higher, 53%
- COC(=O)c1ccc(N2C(=O)[C@@H]3[C@H]4C[C@H]([C@@H]5Sc6[nH]c(=O)sc6[C@@H](c6ccccc6)[C@H]45)[C@@H]3C2=O)cc1 (racemic) [Compound S87, methyl 4-((4aR,5R,5aS,8aS,9S,9aR,10S)-2,6,8-trioxo-10-phenyl-3,4a,5,5a,6,8,8a,9,9a,10-decahydro-5,9-methanothiazolo[5′,4′:5,6]thiopyrano[2,3-f]isoindol-7(2H)-yl)benzoate compound with methyl 4-((4aS,5S,5aR,8aR,9R,9aS,10R)-2,6,8-trioxo-10-phenyl-3,4a,5,5a,6,8,8a,9,9a,10-decahydro-5,9-methanothiazolo[5′,4′:5,6]thiopyrano[2,3-f]isoindol-7(2H)-yl)benzoate (1:1)] — lower, 29%
- CCOC(=O)N1CCN(c2ncc(N3C(=O)C4C(C3=O)[C@H]3C=C[C@@H]4C3)cc2[N+](=O)[O-])CC1 (some centres unmarked) [Compound S34] — lower, 30%
- O=C1C2C3CC(C2C(=O)N1c1ccccc1)C1C(c2ccc(O)cc2)c2sc(=O)[nH]c2SC31 (centres unmarked) [Compound S19] — higher, 50%
- COC(=O)c1cccc(N2C(=O)[C@@H]3[C@H]4C[C@H]([C@@H]5Sc6[nH]c(=O)sc6[C@@H](c6ccccc6)[C@H]45)[C@@H]3C2=O)c1 (racemic) [Compound S96, methyl 3-((4aR,5R,5aS,8aS,9S,9aR,10S)-2,6,8-trioxo-10-phenyl-3,4a,5,5a,6,8,8a,9,9a,10-decahydro-5,9-methanothiazolo[5′,4′:5,6]thiopyrano[2,3-f]isoindol-7(2H)-yl)benzoate compound with methyl 3-((4aS,5S,5aR,8aR,9R,9aS,10R)-2,6,8-trioxo-10-phenyl-3,4a,5,5a,6,8,8a,9,9a,10-decahydro-5,9-methanothiazolo[5′,4′:5,6]thiopyrano[2,3-f]isoindol-7(2H)-yl)benzoate (1:1)] — lower, 34%
- O=C1[C@@H]2[C@H]3C[C@H]([C@@H]4Sc5[nH]c(=O)sc5[C@@H](c5ccccc5)[C@H]34)[C@@H]2C(=O)N1c1ccc(O)cc1 (racemic) [Compound S100, (4aR,5R,5aS,8aS,9S,9aR,10S)-7-(4-hydroxyphenyl)-10-phenyl-3,4a,5,5a,8a,9,9a,10-octahydro-5,9-methanothiazolo[5′,4′:5,6]thiopyrano[2,3-f]isoindole-2,6,8(7H)-trione compound with (4aS,5S,5aR,8aR,9R,9aS,10R)-7-(4-hydroxyphenyl)-10-phenyl-3,4a,5,5a,8a,9,9a,10-octahydro-5,9-methanothiazolo[5′,4′:5,6]thiopyrano[2,3-f]isoindole-2,6,8(7H)-trione (1:1)] — lower, 34%
- O=C1[C@@H]2[C@H]3C[C@H]([C@@H]4Sc5[nH]c(=O)sc5[C@@H](c5ccc(O)cc5)[C@H]34)[C@@H]2C(=O)N1c1ccccc1 (racemic) [Compound S122, (4aR,5R,5aS,8aS,9S,9aR,10S)-10-(4-hydroxyphenyl)-7-phenyl-3,4a,5,5a,8a,9,9a,10-octahydro-5,9-methanothiazolo[5′,4′:5,6]thiopyrano[2,3-f]isoindole-2,6,8(7H)-trione compound with (4aS,5S,5aR,8aR,9R,9aS,10R)-10-(4-hydroxyphenyl)-7-phenyl-3,4a,5,5a,8a,9,9a,10-octahydro-5,9-methanothiazolo[5′,4′:5,6]thiopyrano[2,3-f]isoindole-2,6,8(7H)-trione (1:1)] — higher, 38%
- O=C1[C@@H]2[C@H]3C[C@H]([C@@H]4Sc5[nH]c(=O)sc5[C@@H](c5cccc(O)c5)[C@H]34)[C@@H]2C(=O)N1c1ccccc1 (racemic) [Compound S125, (4aR,5R,5aS,8aS,9S,9aR,10S)-10-(3-hydroxyphenyl)-7-phenyl-3,4a,5,5a,8a,9,9a,10-octahydro-5,9-methanothiazolo[5′,4′:5,6]thiopyrano[2,3-f]isoindole-2,6,8(7H)-trione compound with (4aS,5S,5aR,8aR,9R,9aS,10R)-10-(3-hydroxyphenyl)-7-phenyl-3,4a,5,5a,8a,9,9a,10-octahydro-5,9-methanothiazolo[5′,4′:5,6]thiopyrano[2,3-f]isoindole-2,6,8(7H)-trione (1:1)] — lower, 34%
- O=C1C2C3CC(C2C(=O)N1c1cccc(C(F)(F)F)c1)C1C(c2ccccc2)c2sc(=O)[nH]c2SC31 (centres unmarked) [Compound S21] — higher, 55%
- O=C1[C@@H]2[C@H]3C[C@H]([C@@H]4Sc5[nH]c(=O)sc5[C@@H](c5ccc(F)cc5)[C@H]34)[C@@H]2C(=O)N1c1ccccc1 (racemic) [Compound S124, (4aR,5R,5aS,8aS,9S,9aR,10S)-10-(4-fluorophenyl)-7-phenyl-3,4a,5,5a,8a,9,9a,10-octahydro-5,9-methanothiazolo[5′,4′:5,6]thiopyrano[2,3-f]isoindole-2,6,8(7H)-trione compound with (4aS,5S,5aR,8aR,9R,9aS,10R)-10-(4-fluorophenyl)-7-phenyl-3,4a,5,5a,8a,9,9a,10-octahydro-5,9-methanothiazolo[5′,4′:5,6]thiopyrano[2,3-f]isoindole-2,6,8(7H)-trione (1:1)] — lower, 22%
- Nc1ccc(N2C(=O)[C@@H]3[C@H]4C[C@H]([C@@H]5Sc6[nH]c(=O)sc6[C@@H](c6ccccc6)[C@H]45)[C@@H]3C2=O)cc1 (racemic) [Compound S79, (4aR,5R,5aS,8aS,9S,9aR,10S)-7-(4-aminophenyl)-10-phenyl-3,4a,5,5a,8a,9,9a,10-octahydro-5,9-methanothiazolo[5′,4′:5,6]thiopyrano[2,3-f]isoindole-2,6,8(7H)-trione Compound with (4aS,5S,5aR,8aR,9R,9aS,10R)-7-(4-aminophenyl)-10-phenyl-3,4a,5,5a,8a,9,9a,10-octahydro-5,9-methanothiazolo[5′,4′:5,6]thiopyrano[2,3-t]isoindole-2,6,8(7H)-trione (1:1)] — lower, 29%
- CCOC(=O)N1CCN(c2ncc(N3C(=O)[C@@H]4[C@H](C3=O)[C@H]3C=C[C@@H]4C3)cc2[N+](=O)[O-])CC1 [Compound S35] — lower, 15%
- Cc1ccc(N2C(=O)C3C4CC(C3C2=O)C2C(c3ccc(N(C)C)cc3)c3sc(=O)[nH]c3SC42)cc1 (centres unmarked) [Compound S18] — lower, 30%
- CC(=O)c1ccc(N2C(=O)[C@@H]3[C@H]4C[C@H]([C@@H]5Sc6[nH]c(=O)sc6[C@@H](c6ccccc6)[C@H]45)[C@@H]3C2=O)cc1 (racemic) [Compound S80, (4aR,5R,5aS,8aS,9S,9aR,10S)-7-(4-acetylphenyl)-10-phenyl-3,4a,5,5a,8a,9,9a,10-octahydro-5,9-methanothiazolo[5′,4′:5,6]thiopyrano[2,3-f]isoindole-2,6,8(7H)-trione Compound with (4aS,5S,5aR,8aR,9R,9aS,10R)-7-(4-acetylphenyl)-10-phenyl-3,4a,5,5a,8a,9,9a,10-octahydro-5,9-methanothiazolo[5′,4′:5,6]thiopyrano[2,3-f]isoindole-2,6,8(7H)-trione (1:1)] — lower, 25%
